Earlier results as cited in US5393873A, “Peptides with anticoagulant activity” (BASF Aktiengesellschaft, priority 1991, dated 1995).

Molecular target: thrombin (Homo sapiens, UniProt P00734)

Val-Val-Tyr-Thr-Asp-Cys-Thr-Glu-Ser-Gly-Gln-Asn-Leu-Cys-Leu-Cys-Glu-Gly-Ser-Asn-Val-Cys-Gly-Gln-Gly-Asn-Lys-Cys-Ile-Leu-Gly-Ser-Asp-Gly-Glu-Lys-Asn-Gly-Cys-Val-Thr-Gly-Glu-Gly-Thr-Pro-Lys-Pro-Gln-Ser-His-Asn-Asp-Gly-Asp-Phe-Glu-Glu-Ile-Pro-Glu-Glu-Tyr(SO3 H)-Leu-Gln [Hirudin]
binding to thrombin: very strongly
